Assay results reported in publication PMC8629322 (ACS chemical neuroscience, 2020).
Each block holds one molecule with its values, some of them ahead of it.

How the values were obtained:
PABPN1 = target: T1, PABPN1 (Homo sapiens, UniProt Q86U42); test: PABPN1 fluorescence polarization counter screen; type: binding
T1 sequence (Q86U42 1-306): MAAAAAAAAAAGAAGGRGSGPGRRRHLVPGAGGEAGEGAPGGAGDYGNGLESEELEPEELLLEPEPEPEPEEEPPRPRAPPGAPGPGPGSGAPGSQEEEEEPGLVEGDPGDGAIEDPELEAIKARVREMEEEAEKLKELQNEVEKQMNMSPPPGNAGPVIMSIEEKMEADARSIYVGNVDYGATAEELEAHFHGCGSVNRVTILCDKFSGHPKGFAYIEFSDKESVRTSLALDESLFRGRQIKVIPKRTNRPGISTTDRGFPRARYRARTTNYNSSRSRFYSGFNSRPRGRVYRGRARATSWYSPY

[1] = cited from earlier work
poly(A) = conditions: cited from earlier work
[2] = target: T2, FAM-RNA:MSUT2 ZF complex (poly(A):MSUT2 RNA-protein interaction) (Homo sapiens, UniProt Q6PJT7); test: Fluorescence polarization assay of FAM-poly; type: binding
T2 sequence (Q6PJT7 601-736): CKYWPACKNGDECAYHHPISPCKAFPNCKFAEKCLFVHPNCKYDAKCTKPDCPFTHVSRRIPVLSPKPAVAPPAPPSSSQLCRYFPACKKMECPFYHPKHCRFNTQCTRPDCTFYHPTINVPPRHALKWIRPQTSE

[3] = target: T3, biotinylated RNA:GST-MSUT2 ZF (Homo sapiens, UniProt Q6PJT7); test: AlphaScreen orthogonal poly; type: binding; conditions: for inhibition activity by AlphaScreen: dose-response, 50 nM biotinylated RNA, 50 nM GST-MSUT2
T3 sequence (Q6PJT7 601-736): T2 sequence (Q6PJT7 601-736)

Cell viability assay = conditions: human, HEK293 cells
[4] = tested on: albumin and α1-acid glycoprotein in the plasma; conditions: cited from earlier work
[5] = tested on: hippocampus neuronal loss; conditions: rat model of chronic cerebral hypoperfusion; cited from earlier work
efflux transporters = conditions: cited from earlier work
[6] = target: T4, MSUT2 ZF (CCCH domains only) (UniProt Q6PJT7 601-736); test: competition
T4 sequence: T2 sequence (Q6PJT7 601-736)

IC50 (PABPN1): 23 µM
IC50 [2]: 0.731 µM
inhibition activity by AlphaScreen [3]: dose-dependent inhibition activity
Molecule: CC(C)/N=c1\cc2n(-c3ccc(Cl)cc3)c3ccccc3nc-2cc1Nc1ccc(Cl)cc1 [clofazimine]
crossing of the blood-brain barrier [1]: unable to cross the blood-brain barrier
interaction with poly(A) (poly(A)): little interaction
viability at 72 h (Cell viability assay): > 90%

Molecule: CNCC[C@H](Oc1cccc2ccccc12)c1cccs1 [duloxetine]
IC50 (PABPN1): 4.98 µM
bound to albumin and α1-acid glycoprotein in the plasma [4]: ~ 90%
penetration into cerebral spinal fluid [1]: crosses into cerebral spinal fluid at a much lower rate than other antidepressants
neuronal loss in the hippocampus [5]: attenuated neuronal loss in the hippocampus
concentration range of inhibitory response in FP assay ([2]; acted over 4 log units): 0.01 to 10 µM
inhibition activity by AlphaScreen [3]: dose-dependent inhibition activity
concentration range of inhibition measured by AS ([3]; over a single log unit): 1.0 to 10 µM
viability at 72 h (Cell viability assay): > 90%

IC50 (PABPN1): 6.69 µM
Molecule: CC(C(=O)O)c1ccc(-c2ccccc2)c(F)c1 (centres unmarked) [flurbiprofen]

IC50 (PABPN1): 8.65 µM
IC50 [2]: 0.306 µM
Molecule: CN1C2CCCC1CC(NC(=O)c1nn(C)c3ccccc13)C2 (centres unmarked) [granisetron]

IC50 (PABPN1): 9.09 µM
Molecule: OCCOCCN1CCN(C(c2ccccc2)c2ccc(Cl)cc2)CC1 (centres unmarked) [hydroxyzine]

IC50 (PABPN1): 35.8 µM
IC50 [2]: 0.247 µM
Molecule: CC(C)(C)NC(=O)[C@@H]1CN(Cc2cccnc2)CCN1C[C@@H](O)C[C@@H](Cc1ccccc1)C(=O)N[C@H]1c2ccccc2C[C@H]1O [indinavir]

IC50 (PABPN1): 0.617 µM
inhibition activity by AlphaScreen [3]: dose-dependent inhibition activity
Molecule: CC(C)(C)NC(=O)[C@@H]1C[C@@H]2CCCC[C@@H]2CN1C[C@@H](O)[C@H](Cc1ccccc1)NC(=O)[C@H](CC(N)=O)NC(=O)c1ccc2ccccc2n1 [saquinavir]
brain penetrance [1]: low brain penetrance
viability at 72 h, 40 µM (Cell viability assay): 65%
efflux transporter substrate (efflux transporters): substrate of efflux transporters

B1: unlabeled poly(A)15 RNA (ssRNA)
RNA: AAAAAAAAAAAAAAA
IC50 [6]: 0.29 µM
